Assay results published in publication PMC3222680 (PLoS ONE, 2011).

Assays:
Format in all cases: cell-based
αK24′A α-βWT GlyR = molecular target: T1, αK24′A α-βWT GlyR (Homo sapiens, UniProt P23415+P48167, K304A)
T1 construct: The α R218-Q219 and β R242-Q243 are also the joining sites for chimeras constructed between the ECD and TMD; expressed in transfected cells; host or cells: HEK293 (ATCC)
Method: (§1) The human GlyR α1 and β subunit cDNAs were subcloned into the pcDNA3.1zeo+ (Invitrogen) or pGEMHE [44] plasmid vectors for expression in HEK293 cells or Xenopus oocytes, respectively. Site-directed mutagenesis and chimera construction were performed using the QuickChange (Stratagene, La Jolla, CA, USA) mutagenesis and multiple-template-based sequential PCR protocols, respectively.
(§2) The effects of the hyperekplexia-mimicking mutations, K24′A, V25′A and Y27′A, were examined on GlyRs expressed in HEK293 cells (ATCC). Details of the HEK293 cell culture, GlyR expression and electrophysiological recording of the HEK293 cells are described elsewhere. Briefly, HEK293 cells were maintained in DMEM supplemented with 10% fetal bovine serum. Cells were transfected using a calcium phosphate precipitation protocol. When co-transfecting the α1 together with the β or any other chimera subunits, their respective cDNAs were combined in a ratio of 1∶10. In addition, the pEGFP-N1 (Clontech) was co-transfected to facilitate identifying the transfected cells. […] Cells were treated with external Ringer's solution and internal CsCl solution [30]. Cells were voltage-clamped at −40 mV. When the heteromeric GlyRs were expressed, the picrotoxin sensitivity was tested to confirm that the majority of receptors are heteromers, [30].
(§3) Results are expressed as mean±standard error of the mean of three or more independent experiments. […] Statistical significance was determined using the Student's t-test.

αWT α-βV25′A GlyR = molecular target: T2, αWT α-βV25′A GlyR (Homo sapiens, UniProt P23415+P48167, A277S/G282P/I253M/I257A/I264V/I268L/L252M/M248V/M255V/M274P/P278A/Q254G/S259T/V323A/Y250F)
T2 construct: The α R218-Q219 and β R242-Q243 are also the joining sites for chimeras constructed between the ECD and TMD; expressed in transfected cells; host or cells: HEK293 (ATCC)
T2 sequence (P23415 29-449 isoform P23415-2, stated change not applied): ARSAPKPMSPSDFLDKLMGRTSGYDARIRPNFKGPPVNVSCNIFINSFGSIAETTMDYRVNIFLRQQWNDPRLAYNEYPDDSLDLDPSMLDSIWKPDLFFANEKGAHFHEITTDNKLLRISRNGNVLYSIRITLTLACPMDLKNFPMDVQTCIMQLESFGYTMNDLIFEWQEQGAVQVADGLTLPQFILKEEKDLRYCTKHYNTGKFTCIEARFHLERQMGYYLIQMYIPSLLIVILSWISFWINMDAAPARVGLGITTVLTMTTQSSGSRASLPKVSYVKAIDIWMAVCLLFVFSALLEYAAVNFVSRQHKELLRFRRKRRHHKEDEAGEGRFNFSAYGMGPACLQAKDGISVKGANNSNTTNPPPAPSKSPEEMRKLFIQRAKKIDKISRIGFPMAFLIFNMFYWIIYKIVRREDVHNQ
T2 sequence (P23415+P48167 fused with the stated changes): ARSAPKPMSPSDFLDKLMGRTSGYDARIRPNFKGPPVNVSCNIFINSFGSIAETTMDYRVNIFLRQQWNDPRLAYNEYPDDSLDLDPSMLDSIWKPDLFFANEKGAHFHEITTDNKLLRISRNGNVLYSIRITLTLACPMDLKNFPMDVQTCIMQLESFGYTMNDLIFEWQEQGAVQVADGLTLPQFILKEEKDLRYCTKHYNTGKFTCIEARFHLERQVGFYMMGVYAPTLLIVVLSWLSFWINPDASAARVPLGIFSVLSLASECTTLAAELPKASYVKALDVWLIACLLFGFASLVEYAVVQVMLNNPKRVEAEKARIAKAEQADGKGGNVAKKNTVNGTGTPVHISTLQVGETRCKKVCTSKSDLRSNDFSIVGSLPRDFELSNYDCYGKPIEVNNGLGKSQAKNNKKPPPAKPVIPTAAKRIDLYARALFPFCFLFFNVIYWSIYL
Method: as §1, §2, §3

αR19′A βA19′R GlyR = molecular target: T3, αR19′A βA19′R GlyR (Homo sapiens, UniProt P23415+P48167, A317R/R299A)
T3 construct: expressed in transfected cells; host or cells: HEK293 (ATCC)
T3 sequence (P23415 29-449 isoform P23415-2 R299A limits assumed): as the sequence (P23415 29-449 isoform P23415-2, stated change not applied) above, with R271A counted along it
T3 sequence (P48167 23-497 A317R): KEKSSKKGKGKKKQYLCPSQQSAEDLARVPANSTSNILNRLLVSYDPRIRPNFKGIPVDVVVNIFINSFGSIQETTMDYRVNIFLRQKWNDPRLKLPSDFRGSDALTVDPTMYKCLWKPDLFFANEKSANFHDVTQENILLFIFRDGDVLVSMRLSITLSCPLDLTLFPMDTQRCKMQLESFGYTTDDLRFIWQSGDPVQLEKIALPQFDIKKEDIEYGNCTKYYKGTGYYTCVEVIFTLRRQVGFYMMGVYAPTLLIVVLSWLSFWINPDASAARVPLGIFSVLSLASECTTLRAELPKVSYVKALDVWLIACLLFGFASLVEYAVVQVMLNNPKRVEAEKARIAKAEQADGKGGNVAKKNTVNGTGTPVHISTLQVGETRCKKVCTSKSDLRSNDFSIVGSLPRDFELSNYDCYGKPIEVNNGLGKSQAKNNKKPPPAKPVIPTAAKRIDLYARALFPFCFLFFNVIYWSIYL
Method: as §1, §2, §3

αWT αB-βWT GlyR = molecular target: T4, αWT αB-βWT GlyR (Homo sapiens, UniProt P23415+P48167, A165S/A240V/A277S/A316I/A325S/A80Q/DEL290-297/E245R/G282P/H243T/I181K/I238V/I253M/I257A/I264V/I268L/I311L/I313V/INS301ECTTLAAE/K171T/L252M/L327V/M168L/M248V/M255V/M274P/M315L/N172L/P278A/Q254G/R241I/R299L/S259T/S324A/T179R/T286F/T287S/V177T/V317A/V322G/Y250F)
T4 construct: expressed in transfected cells; host or cells: HEK293 (ATCC)
T4 sequence (P23415 29-449 isoform P23415-2, stated change not applied): as the sequence (P23415 29-449 isoform P23415-2, stated change not applied) above
T4 sequence (P23415+P48167 fused with the stated changes): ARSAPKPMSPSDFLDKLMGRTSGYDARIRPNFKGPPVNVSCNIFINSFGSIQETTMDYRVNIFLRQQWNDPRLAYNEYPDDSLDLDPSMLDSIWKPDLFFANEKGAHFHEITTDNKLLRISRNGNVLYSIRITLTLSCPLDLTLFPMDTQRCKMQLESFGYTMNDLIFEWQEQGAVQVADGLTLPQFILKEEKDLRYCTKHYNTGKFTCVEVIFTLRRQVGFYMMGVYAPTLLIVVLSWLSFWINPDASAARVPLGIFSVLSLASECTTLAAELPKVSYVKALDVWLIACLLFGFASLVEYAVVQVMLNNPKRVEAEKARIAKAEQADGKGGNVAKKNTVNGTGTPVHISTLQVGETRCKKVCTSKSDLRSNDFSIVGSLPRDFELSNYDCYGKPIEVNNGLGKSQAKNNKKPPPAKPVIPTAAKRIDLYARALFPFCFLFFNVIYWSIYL
Method: as §1, §2, §3

αWT αT-βV25′A GlyR = molecular target: T5, αWT αT-βV25′A GlyR (Homo sapiens, UniProt P23415+P48167, I259R/K198I/L185M/L189N/Q95A/R196T/R263E/S182A/T188K/T194V/T261H/V256I/V258A/V323A)
T5 construct: expressed in transfected cells; host or cells: HEK293 (ATCC)
T5 sequence (P23415 29-449 isoform P23415-2, stated change not applied): as the sequence (P23415 29-449 isoform P23415-2, stated change not applied) above
T5 sequence (P48167 23-497 Q95A/S182A/L185M/T188K/L189N/T194V/R196T/K198I/V256I/V258A/I259R/T261H/R263E/V323A): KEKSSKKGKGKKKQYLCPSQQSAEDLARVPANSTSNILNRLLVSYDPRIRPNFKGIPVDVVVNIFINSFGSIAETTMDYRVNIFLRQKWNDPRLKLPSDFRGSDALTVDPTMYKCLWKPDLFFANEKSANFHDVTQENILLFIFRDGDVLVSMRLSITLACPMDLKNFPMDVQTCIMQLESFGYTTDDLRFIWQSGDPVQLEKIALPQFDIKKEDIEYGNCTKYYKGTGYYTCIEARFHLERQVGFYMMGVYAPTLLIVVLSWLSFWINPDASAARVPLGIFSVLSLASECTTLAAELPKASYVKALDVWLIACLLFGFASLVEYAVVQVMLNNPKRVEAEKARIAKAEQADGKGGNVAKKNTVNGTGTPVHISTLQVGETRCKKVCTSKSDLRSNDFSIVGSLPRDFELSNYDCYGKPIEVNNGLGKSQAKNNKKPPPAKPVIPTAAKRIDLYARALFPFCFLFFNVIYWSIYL
Method: as §1, §2, §3

αWT αB-βV25′A GlyR = molecular target: T6, αWT αB-βV25′A GlyR (Homo sapiens, UniProt P23415+P48167, A165S/A240V/A277S/A80Q/E245R/G282P/H243T/I181K/I238V/I253M/I257A/I264V/I268L/K171T/L252M/M168L/M248V/M255V/M274P/N172L/P278A/Q254G/R241I/S259T/T179R/V177T/V323A/Y250F)
T6 construct: expressed in transfected cells; host or cells: HEK293 (ATCC)
T6 sequence (P23415 29-449 isoform P23415-2, stated change not applied): as the sequence (P23415 29-449 isoform P23415-2, stated change not applied) above
T6 sequence (P23415+P48167 fused with the stated changes): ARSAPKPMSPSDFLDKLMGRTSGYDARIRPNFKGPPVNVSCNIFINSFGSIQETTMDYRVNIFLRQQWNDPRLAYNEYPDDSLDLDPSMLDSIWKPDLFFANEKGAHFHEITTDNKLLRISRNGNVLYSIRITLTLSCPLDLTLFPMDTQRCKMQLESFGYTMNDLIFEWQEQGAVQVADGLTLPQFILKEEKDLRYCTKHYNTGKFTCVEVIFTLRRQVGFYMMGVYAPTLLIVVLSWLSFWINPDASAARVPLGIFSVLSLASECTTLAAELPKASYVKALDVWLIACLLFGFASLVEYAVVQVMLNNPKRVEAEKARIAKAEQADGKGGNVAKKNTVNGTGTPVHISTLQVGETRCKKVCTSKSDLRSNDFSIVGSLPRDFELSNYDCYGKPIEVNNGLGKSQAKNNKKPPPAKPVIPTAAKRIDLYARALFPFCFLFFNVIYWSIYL
Method: as §1, §2, §3

αWT βK24′A GlyR = molecular target: T7, αWT βK24′A GlyR (Homo sapiens, UniProt P23415+P48167, K322A)
T7 construct: expressed in transfected cells; host or cells: HEK293 (ATCC)
T7 sequence (P23415 29-449 isoform P23415-2 limits assumed, stated change not applied): as the sequence (P23415 29-449 isoform P23415-2, stated change not applied) above
T7 sequence (P48167 23-497 K322A): as the sequence (P48167 23-497 A317R) above, with R295A, K300A counted along it
Method: as §1, §2, §3

αK24′A β-αWT GlyR = molecular target: T8, αK24′A β-αWT GlyR (Homo sapiens, UniProt P23415+P48167, K304A)
T8 construct: The α R218-Q219 and β R242-Q243 are also the joining sites for chimeras constructed between the ECD and TMD; expressed in transfected cells; host or cells: HEK293 (ATCC)
T8 sequence (P23415 29-449 isoform P23415-2 K304A): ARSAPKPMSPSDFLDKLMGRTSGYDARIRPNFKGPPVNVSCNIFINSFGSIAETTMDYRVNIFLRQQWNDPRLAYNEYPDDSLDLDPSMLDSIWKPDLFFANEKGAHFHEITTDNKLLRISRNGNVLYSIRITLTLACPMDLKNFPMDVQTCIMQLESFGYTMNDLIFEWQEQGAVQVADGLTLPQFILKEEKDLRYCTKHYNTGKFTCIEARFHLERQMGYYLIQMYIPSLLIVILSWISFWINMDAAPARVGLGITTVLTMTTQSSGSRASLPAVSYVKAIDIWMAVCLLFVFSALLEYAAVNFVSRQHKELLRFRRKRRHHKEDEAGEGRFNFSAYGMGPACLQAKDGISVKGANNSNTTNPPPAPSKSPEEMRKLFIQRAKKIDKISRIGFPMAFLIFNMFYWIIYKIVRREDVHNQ
T8 sequence (P48167+P23415 with tags, fused parts or gaps P48167:V266M/P48167:F268Y/P48167:M270L/P48167:M271I/P48167:G272Q/P48167:V273M/P48167:A275I/P48167:T277S/P48167:V282I/P48167:L286I/P48167:P292M/P48167:S295A/P48167:A296P/P48167:P300G): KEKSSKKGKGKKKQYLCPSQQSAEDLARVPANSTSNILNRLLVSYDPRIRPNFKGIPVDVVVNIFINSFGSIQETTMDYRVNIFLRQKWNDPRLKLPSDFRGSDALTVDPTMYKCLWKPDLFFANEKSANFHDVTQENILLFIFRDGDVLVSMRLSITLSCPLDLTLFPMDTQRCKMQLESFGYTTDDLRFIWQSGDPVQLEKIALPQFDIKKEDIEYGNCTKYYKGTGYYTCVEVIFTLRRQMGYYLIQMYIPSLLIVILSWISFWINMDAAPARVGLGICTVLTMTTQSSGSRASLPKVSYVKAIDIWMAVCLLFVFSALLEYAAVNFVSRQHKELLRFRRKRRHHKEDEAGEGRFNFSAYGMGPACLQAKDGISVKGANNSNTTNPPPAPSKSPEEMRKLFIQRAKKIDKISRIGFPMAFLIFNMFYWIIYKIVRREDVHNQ
Method: as §1
For the β-α chimeras used for determining the effect of hyperekplexia-mimicking mutations on α1 β GlyR channel function, the Thr at the M2 6′ position was replaced by a Cys. […] Through such a modification, picrotoxin resistance was used to distinguish the heteromeric α1 β-α GlyR from the homomeric α1 GlyR when the α1 and β-α subunits were co-expressed.
as §2, §3

[1] = αK24′A α-βWT, HEK293, with glycine at EC50 of α1 homomer
[2] = αWT α-βV25′A, HEK293, with glycine at EC50 of α1 homomer
[3] = αR19′A βA19′R, HEK293, with glycine at EC50 of α1 homomer
[4] = αWT αB-βWT, HEK293, with glycine at EC50 of α1 homomer
[5] = αWT αT-βV25′A, HEK293, with glycine at EC50 of α1 homomer
[6] = αWT αB-βV25′A, HEK293, with glycine at EC50 of α1 homomer
[7] = αWT βK24′A, HEK293, with glycine at EC50 of α1 homomer
[8] = αK24′A β-αWT, HEK293, with glycine at EC50 of α1 homomer

T1 sequence (P23415+P48167 fused with the stated changes, one chain of several): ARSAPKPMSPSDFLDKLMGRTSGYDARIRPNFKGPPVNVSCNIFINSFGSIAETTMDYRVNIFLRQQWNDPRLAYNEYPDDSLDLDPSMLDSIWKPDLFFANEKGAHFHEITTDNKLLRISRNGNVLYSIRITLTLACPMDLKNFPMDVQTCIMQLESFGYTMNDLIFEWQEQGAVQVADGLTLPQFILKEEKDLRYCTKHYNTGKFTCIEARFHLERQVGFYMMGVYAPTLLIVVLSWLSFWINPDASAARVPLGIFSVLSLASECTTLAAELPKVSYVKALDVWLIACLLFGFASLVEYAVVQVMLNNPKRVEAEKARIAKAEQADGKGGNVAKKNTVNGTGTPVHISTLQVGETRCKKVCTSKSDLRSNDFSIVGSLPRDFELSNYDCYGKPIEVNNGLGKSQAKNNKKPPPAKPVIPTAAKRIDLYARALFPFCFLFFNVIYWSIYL

Q: With `NCC(=O)O` [glycine] as the molecule, how does the Imax (αK24′A α-βWT GlyR) read?
A: 7.2±0.9 nA

Q: What about the nH (αK24′A α-βWT GlyR) of the same molecule?
A: 1.0±0.1

Q: And the Imax (αWT α-βV25′A GlyR)?
A: 7.6±1.7 nA

Q: What about the nH (αWT α-βV25′A GlyR) of the same molecule?
A: 1.3±0.1

Q: And the Imax (αR19′A βA19′R GlyR)?
A: 5.5±0.9 nA

Q: What about the nH (αR19′A βA19′R GlyR) of the same molecule?
A: 2.1±0.2

Q: And the Imax (αWT αB-βWT GlyR)?
A: 8.6±1.6 nA

Q: What about the nH (αWT αB-βWT GlyR) of the same molecule?
A: 1.8±0.4

Q: And the Imax (αWT αT-βV25′A GlyR)?
A: 14±3.0 nA

Q: What about the nH (αWT αT-βV25′A GlyR) of the same molecule?
A: 2.3±0.1

Q: What about the Imax (αWT αB-βV25′A GlyR) of the same molecule?
A: 9.8±4.9 nA

Q: And the nH (αWT αB-βV25′A GlyR)?
A: 2.2±0.3

Q: And the Imax (αWT βK24′A GlyR)?
A: 5.4±1.0 nA

Q: What about the nH (αWT βK24′A GlyR) of the same molecule?
A: 1.5±0.3

Q: What about the Imax (αK24′A β-αWT GlyR) of the same molecule?
A: 8.9±1.9 nA

Q: And the nH (αK24′A β-αWT GlyR)?
A: 2.0±0.3

Q: With picrotoxin [PTX] as the molecule, how does the “10uM PTX inhibition (%)” value (αK24′A α-βWT GlyR; [1]) read?
A: 4.8±0.7%

Q: What about the “100uM PTX inhibition (%)” value (αK24′A α-βWT GlyR; [1]) of the same molecule?
A: 26±5%

Q: What about the “10uM PTX inhibition (%)” value (αWT α-βV25′A GlyR; [2]) of the same molecule?
A: 3.0±1.3%

Q: And the “100uM PTX inhibition (%)” value (αWT α-βV25′A GlyR; [2])?
A: 34±4%

Q: And the “10uM PTX inhibition (%)” value (αR19′A βA19′R GlyR; [3])?
A: 4.2±1.7%

Q: And the “100uM PTX inhibition (%)” value (αR19′A βA19′R GlyR; [3])?
A: 22±8%

Q: And the “10uM PTX inhibition (%)” value (αWT αB-βWT GlyR; [4])?
A: 4.8±0.9%

Q: What about the “100uM PTX inhibition (%)” value (αWT αB-βWT GlyR; [4]) of the same molecule?
A: 33±4%

Q: What about the “10uM PTX inhibition (%)” value (αWT αT-βV25′A GlyR; [5]) of the same molecule?
A: 8.5±1.8%

Q: What about the “100uM PTX inhibition (%)” value (αWT αT-βV25′A GlyR; [5]) of the same molecule?
A: 36±3%

Q: What about the “10uM PTX inhibition (%)” value (αWT αB-βV25′A GlyR; [6]) of the same molecule?
A: 8.9±2.4%

Q: What about the “100uM PTX inhibition (%)” value (αWT αB-βV25′A GlyR; [6]) of the same molecule?
A: 43±3%

Q: And the “10uM PTX inhibition (%)” value (αWT βK24′A GlyR; [7])?
A: 6.0±1.2%

Q: And the “100uM PTX inhibition (%)” value (αWT βK24′A GlyR; [7])?
A: 35±3%

Q: And the “10uM PTX inhibition (%)” value (αK24′A β-αWT GlyR; [8])?
A: 10.0±2.2%

Q: And the “100uM PTX inhibition (%)” value (αK24′A β-αWT GlyR; [8])?
A: 23±4%
